This note sets out measurements from patent US7807845B2, “Resistance-repellent retroviral protease inhibitors” (priority 2004, dated 2010).

For one test, the target named is T1, wild type HIV PR (Human immunodeficiency virus type 1 group M subtype B, UniProt P04585).
T1 construct: Recombinant wild type and mutant HIV PRs were expressed using pET21 vector (Novagen) in E. coli cells; made in house
As to the kind of experiment: HIV PR inhibition assay, wild type. It counts as biochemical. The protocol:
(§1) Expression and purification of WT and mutant HIV PR. Recombinant wild type and mutant HIV PRs were expressed using pET21 vector (Novagen) in E. coli cells, and purified and refolded as described previously (Gulnik et al, 1995). The cells were resuspended in 50 mM tris-HCl buffer, pH 8.0, 25 mM NaCl, 0.2% β-mercaptoethanol (buffer A), sonicated and centrifuged. Inclusion bodies were washed first with buffer A, then with buffer A containing respectively 0.1% Triton X-100, 1 M NaCl, 1 M urea, and finally with buffer A alone. Purified inclusion bodies were solubilized by addition of buffer A containing 8 M urea at room temperature. The solution was clarified by centrifugation and loaded onto 2.6×9.5 cm Q-Sepharose column. Flow-through fractions were collected and dialyzed against 3 changes of refolding buffer, which consists of 25 mM Na-phosphate, pH 7.0, 25 mM NaCl, 0.2% β-mercaptoethanol and 10% glycerol, aliquoted and stored at −80° C.
(§2) Inhibition constants were determined using the fluorogenic substrate ArgGlu(EDANS)[…]DABCYL)Arg (Amichem, USA). HIV Protease was preincubated for 0.5-1 min at ambient temperature on a 96 well plate with different concentrations of inhibitor in 0.05 M sodium phosphate buffer, pH 6.5, containing 20 mM NaCl, 2 mM DTT and 0.01% Tween-20. The reaction was initiated by the addition of substrate. Final enzyme concentration was 2-5 nM for WT and 2-30 nM for mutants. Substrate concentration was 20 uM and DMSO concentration 2%. The increase in fluorescence intensity at the emission maximum of 520 nm (excitation wavelength 340 nm, cut-off filter 495 nm) was monitored as a function of time using a Spectramax Gemini fluorescence plate reader (Molecular Devices, CA USA). The initial rate of hydrolysis was calculated by first-degree polynomial fit using SoftMAX operating software. Data were fitted to the Michaelis-Menten equation for competitive inhibitors. For tight-binding inhibitors the data were fitted by nonlinear regression analysis to the equation V=V0/2Et({[Ki(1+S/Km)+It−Et]^2+4Ki(1+S/Km)Et}^1/2−[Ki(1+S/Km)+It−Et]) (Williams and Morrison, 1979) with the program GraFit, version 5 (Erithacus Software Limited, UK), where V and V0 are initial velocities with and without inhibitor, Km is the Michaelis-Menten constant and S, Et and It are the concentrations of substrate, active enzyme and inhibitor respectively.

For another test, the target named is mutant HIV PR (Mutant 8) (Human immunodeficiency virus type 1 group M subtype B, UniProt P04585). As to the kind of experiment: HIV PR inhibition assay, Mutant 8. It counts as biochemical. As to conditions: read-out: Ki Mutant 8; recombinant mutant HIV PR, fluorogenic substrate, pH 6.5. As for the experimental part: as §1, §2
The next test concerns the target mutant HIV PR (Mutant 9) (Human immunodeficiency virus type 1 group M subtype B, UniProt P04585). As to the kind of experiment: HIV PR inhibition assay, Mutant 9. As to conditions: read-out: Ki Mutant 9; recombinant mutant HIV PR, fluorogenic substrate, pH 6.5. The class given is biochemical. The protocol: as §1, §2
For test [1], the target named is mutant HIV PR (Mutant 10) (Human immunodeficiency virus type 1 group M subtype B, UniProt P04585). The experiment in a line: HIV PR inhibition assay, Mutant 10. The following applies: read-out: Ki Mutant 10; recombinant mutant HIV PR, fluorogenic substrate, pH 6.5. It counts as biochemical. The protocol:
as §1, §2

A further test has as its system WT=HIVHXB2. As to the kind of experiment: Antiviral assay in MT-4 cells (MTT), WT virus. The class given is cell-based, HIV. As to conditions: Human immunodeficiency virus 1, MT4, 120 h, HIVHXB2, 5 days. As for the experimental part:
(§3) MT-4 cells were obtained from the AIDS Research and Reference Reagent Program (ARRRP, Division of AIDS, NIAID, NIH: MT-4 from Dr. D. Richman). Cells were propagated in RPMI 1640 supplemented with 10% fetal bovine serum, 50U of penicillin and 50 μg of streptomycin per ml (Invitrogen, Carlsbad Calif.). The following HIV viruses were used for testing of antiviral potency of compounds: WT=HIVHXB2; recombinant HIVHXB2 virus from drug resistant patient isolates; HIVmutant10 (16 mutations); HIVmutant8 (14 mutations); HIVmutant9 (10 mutations).
(§4) The potency of test compound was determined as previously described (ref 1-3) with minor modifications. MT-4 cells (1.5×10^4/ml) were exposed to 200 50 % tissue culture infective doses (TCID50) of viruses in the presence of various concentrations of test compound in 96 well microtiter plates and incubated at 37° C. for 5 days. 3-(4,5-dimethylthiazol-2-yl)-2,5-diphenytetrazolium bromide (MTT) solution was added to a final concentration of 0.75 mg/ml, and plates were incubated 1 hour. After incubation cells were dissolved in isopropanol/Triton-X 100/HCl (1000:50:25) solution. Absorbance was monitored in a microplate reader (Spectramax, Molecular Devices) at 540 nm and 690 nm. Cytotoxicity of compounds was tested in a similar assay in the absence of virus.

For test [2], the system named is HIVmutant8 (14 mutations). The experiment in a line: Antiviral assay in MT-4 cells (MTT), mutant 8 virus. The class given is cell-based, HIV. The following applies: Human immunodeficiency virus 1, MT4, 120 h, read-out: IC50 Mutant 8. The protocol:
as §3, §4

The subject of test [3] is HIVmutant9 (10 mutations). As to the kind of experiment: Antiviral assay in MT-4 cells (MTT), mutant 9 virus. It counts as cell-based, HIV. The following applies: Human immunodeficiency virus 1, MT4, 120 h, read-out: IC50 Mutant 9. As for the experimental part:
as §3, §4

Test [4] deals with HIVmutant10 (16 mutations). The experiment in a line: Antiviral assay in MT-4 cells (MTT), mutant 10 virus. The following applies: Human immunodeficiency virus 1, MT4, 120 h, read-out: IC50 Mutant 10. The class given is cell-based, HIV. As for the experimental part:
as §3, §4

Each structure is given as a SMILES string. Where only a bound is given, the exact number is not on record here.

Regarding `C=CCN(C=C1C(=O)Nc2ccc(S(=O)(=O)N(CC(C)C)CC(O)C(Cc3ccccc3)NC(=O)OC3COC4OCCC34)cc21)C1CCCC1` (stereo not drawn) [Compound 116], the Ki (commonly the dissociation constant of the complex between target and ligand, obtained from inhibition or displacement) is under 0.1 nM on wild type HIV PR, under 0.3 nM at mutant HIV PR (Mutant 8), under 0.1 nM on mutant HIV PR (Mutant 9) and under 1 nM in test [1]. For the same molecule, the IC50 (in general, the concentration needed to halve the response being measured) came out at 15 nM with WT=HIVHXB2, 50 nM in test [2], 20 nM in test [3] and 150 nM in test [4].
With `CC(C)CC(C)NC=C1C(=O)Nc2ccc(S(=O)(=O)N(CC(C)C)CC(O)C(Cc3ccccc3)NC(=O)OC3COC4OCCC34)cc21` (stereo not drawn) [Compound 104], the inhibition constant Ki was 0.17 nM at wild type HIV PR, under 0.3 nM on mutant HIV PR (Mutant 8), 0.25 nM at mutant HIV PR (Mutant 9) and 1.3 nM in test [1]. Further, the concentration for half-maximal inhibition (IC50) in the test with WT=HIVHXB2 came to 7 nM; in test [2], 33 nM; in test [3], 16 nM; in test [4] it was 74 nM.
As for `CC(C)CN(C[C@@H](O)[C@H](Cc1ccccc1)NC(=O)O[C@H]1CO[C@H]2OCC[C@H]21)S(=O)(=O)c1ccc2c(c1)/C(=C/NCC(C)(C)C)C(=O)N2` [Compound 22, [1-Benzyl-3-({3-[(2,2-dimethyl-propylamino)-methylene]-2-oxo-2,3-dihydro-1H-indole-5-sulfonyl}-isobutyl-amino)-2-hydroxy-propyl]-carbamic acid hexahydro-furo[2,3b]furan-3-yl ester], the Ki on wild type HIV PR is under 0.1 nM; on mutant HIV PR (Mutant 8) it was under 0.3 nM; on mutant HIV PR (Mutant 9), 0.15 nM; in test [1], under 1 nM. Besides, the half-inhibitory concentration (IC50) in the test with WT=HIVHXB2 was 4.5 nM; in test [2] it was 13 nM; in test [3], 9.5 nM; in test [4], 27 nM.
`CC(C)CN(CC(O)C(Cc1ccccc1)NC(=O)OC1COC2OCCC12)S(=O)(=O)c1ccc2c(c1)C(=CNCc1ccc3ccccc3n1)C(=O)N2` (stereo not drawn) [Compound 130]: the inhibition constant Ki at wild type HIV PR was 0.1 nM; at mutant HIV PR (Mutant 8) it was under 0.3 nM; on mutant HIV PR (Mutant 9), under 0.1 nM; in test [1], under 1 nM. For the same molecule, the IC50 in the test on WT=HIVHXB2 is 32 nM; in test [3], 23 nM; in test [4], 27 nM.
Take `CC(C)CN(CC(O)C(Cc1ccccc1)NC(=O)OC1COC2OCCC12)S(=O)(=O)c1ccc2c(c1)C(=CNCCc1ccccn1)C(=O)N2` (stereo not drawn) [Compound 76, [1-Benzyl-2-hydroxy-3-(isobutyl-{2-oxo-3-[(2-pyridin-2-yl-ethylamino)-methylene]-2,3-dihydro-1H-indole-5-sulfonyl}-amino)-propyl]-carbamic acid hexahydro-furo[2,3-b]furan-3-yl ester]: the Ki at wild type HIV PR is under 0.1 nM; on mutant HIV PR (Mutant 8) it was under 0.3 nM; at mutant HIV PR (Mutant 9) it was under 0.1 nM; in test [1], under 1 nM. Besides, the IC50 in the test on WT=HIVHXB2 was 33 nM; in test [2] it was 61 nM; in test [3] it was 35 nM; in test [4] it was 28 nM.
Regarding `CC(NCC(F)(F)F)=C1C(=O)Nc2ccc(S(=O)(=O)N(CC(C)C)CC(O)C(Cc3ccccc3)NC(=O)OC3COC4OCCC34)cc21` (stereo not drawn) [Compound 45, [1-Benzyl-2-hydroxy-3-(isobutyl-{2-oxo-3-[1-(2,2,2-trifluoro-ethylamino)-ethylidene]-2,3-dihydro-1H-indole-5-sulfonyl}-amino)-propyl]-carbamic acid hexahydro-furo[2,3-b]furan-3-yl ester], the inhibition constant Ki was under 0.1 nM at wild type HIV PR, under 0.3 nM on mutant HIV PR (Mutant 8), under 0.1 nM on mutant HIV PR (Mutant 9) and 3.1 nM in test [1]. The concentration for half-maximal inhibition (IC50) in the test with WT=HIVHXB2 amounted to 13 nM; in test [2], 26 nM; in test [4], 52 nM.
As for `CC(C)CCNC=C1C(=O)Nc2ccc(S(=O)(=O)N(CC(C)C)CC(O)C(Cc3ccccc3)NC(=O)OC3COC4OCCC34)cc21` (stereo not drawn) [Compound 66, [1-Benzyl-2-hydroxy-3-(isobutyl-{3-[(3-methyl-butylamino)-methylene]-2-oxo-2,3-dihydro-1H-indole-5-sulfonyl}-amino)-propyl]-carbamic acid hexahydro-furo[2,3-b]furan-3-yl ester], the Ki at wild type HIV PR was under 0.1 nM; on mutant HIV PR (Mutant 8) it was under 0.3 nM; at mutant HIV PR (Mutant 9), under 0.1 nM; in test [1], under 1 nM. Besides, the IC50 amounted to 12 nM with WT=HIVHXB2, 26 nM in test [2] and 39 nM in test [4].
As for `CCNC(C)=C1C(=O)Nc2ccc(S(=O)(=O)N(CC(C)C)CC(O)C(Cc3ccccc3)NC(=O)OC3COC4OCCC34)cc21` (stereo not drawn) [Compound 43, (1-Benzyl-3-{[3-(1-ethylamino-ethylidene)-2-oxo-2,3-dihydro-1H-indole-5-sulfonyl]-isobutyl-amino}-2-hydroxy-propyl)-carbamic acid hexahydro-furo[2,3-b]furan-3-yl ester], the Ki is under 0.1 nM at wild type HIV PR, under 0.3 nM at mutant HIV PR (Mutant 8), under 0.1 nM at mutant HIV PR (Mutant 9) and under 1 nM in test [1]. For the same molecule, the IC50 with WT=HIVHXB2 was found to be 7 nM; in test [2], 23 nM; in test [3] it was 9 nM; in test [4], 65 nM.
Regarding `CC(C)CN(C[C@@H](O)[C@H](Cc1ccccc1)NC(=O)O[C@H]1CO[C@H]2OCC[C@H]21)S(=O)(=O)c1ccc2c(c1)/C(=C/N(C)C)C(=O)N2` [Compound 21, {1-Benzyl-3-[(3-dimethylaminomethylene-2-oxo-2,3-dihydro-1H-indole-5-sulfonyl)-isobutyl-amino]-2-hydroxy-propyl}-carbamic acid hexahydro-furo[2,3-b]furan-3-yl ester], the Ki at wild type HIV PR is under 0.1 nM; on mutant HIV PR (Mutant 8), under 0.3 nM; on mutant HIV PR (Mutant 9) it was under 0.1 nM; in test [1], under 1 nM. Besides, the IC50 was determined as 93 nM in the test on WT=HIVHXB2, 90 nM in test [2], 65 nM in test [3] and 70 nM in test [4].
On to `CCCCN(C=C1C(=O)Nc2ccc(S(=O)(=O)N(CC(C)C)CC(O)C(Cc3ccccc3)NC(=O)OC3COC4OCCC34)cc21)CC` (stereo not drawn) [Compound 118], for which the inhibition constant (Ki) at wild type HIV PR is under 0.1 nM; on mutant HIV PR (Mutant 8), under 0.3 nM; at mutant HIV PR (Mutant 9), under 0.1 nM; in test [1], 1.9 nM. In addition, the half-maximal inhibitory concentration (IC50) with WT=HIVHXB2 was determined as 13 nM; in test [2], 40 nM; in test [3] it was 15 nM; in test [4], 60 nM.
As to `CCOC(=O)CN(C=C1C(=O)Nc2ccc(S(=O)(=O)N(CC(C)C)CC(O)C(Cc3ccccc3)NC(=O)OC3COC4OCCC34)cc21)Cc1ccccc1` (stereo not drawn) [Compound 138], the inhibition constant Ki on wild type HIV PR was under 0.1 nM; at mutant HIV PR (Mutant 8) it was under 0.3 nM; at mutant HIV PR (Mutant 9) it was 0.11 nM; in test [1], 1.9 nM. Besides, the concentration for half-maximal inhibition (IC50) with WT=HIVHXB2 was 31 nM; in test [3], 15 nM; in test [4] it was 16 nM.
